Results from patent US10730863B2, “Bridged bicyclic compounds as farnesoid X receptor modulators” (BRISTOL-MYERS SQUIBB COMPANY, priority 2017, dated 2020).
pEC50: −log10 of the molar value.

Molecular target: FXR (Homo sapiens (Human), UniProt Q96RI1)
Experiment: FXR EC50 (FXR agonist activity reported with each example)
Assay type: cell-based

Sequence of FXR (Q96RI1 262-486): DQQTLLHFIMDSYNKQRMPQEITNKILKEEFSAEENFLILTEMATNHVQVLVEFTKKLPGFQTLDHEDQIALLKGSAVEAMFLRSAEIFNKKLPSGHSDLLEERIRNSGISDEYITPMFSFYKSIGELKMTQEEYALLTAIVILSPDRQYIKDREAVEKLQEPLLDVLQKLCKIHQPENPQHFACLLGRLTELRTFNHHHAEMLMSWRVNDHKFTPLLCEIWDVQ

SMILES | pEC50
O=C(O)c1cc(OCC23CCC(/C=C/c4c(-c5c(Cl)cncc5Cl)noc4C4CC4)(CC2)CC3)cc(C(F)(F)F)c1 [Example 506, (E)-3-((4-(2-(5-cyclopropyl-3-(3,5-dichloropyridin-4-yl)isoxazol-4-yl)vinyl)bicyclo[2.2.2]octan-1-yl)methoxy)-5-(trifluoromethyl)benzoic acid] | 8.22
O=C(O)c1cc(C(F)(F)F)cc2nc(C34CCC(/C=C/c5c(-c6c(Cl)cncc6Cl)noc5C5CC5)(CC3)CC4)sc12 [Example 507, (E)-2-(4-(2-(5-cyclopropyl-3-(3,5-dichloropyridin-4-yl)isoxazol-4-yl)vinyl)bicyclo[2.2.2]octan-1-yl)-5-(trifluoromethyl)benzo[d]thiazole-7-carboxylic acid] | 7.70
COc1cc(C(=O)O)nc2ccc(OCC34CCC(/C=C/c5c(-c6c(Cl)cncc6Cl)noc5C5CC5)(CC3)CC4)cc12 [Example 508, (E)-6-((4-(2-(5-cyclopropyl-3-(3,5-dichloropyridin-4-yl)isoxazol-4-yl)vinyl)bicyclo[2.2.2]octan-1-yl)methoxy)-4-methoxyquinoline-2-carboxylic acid] | 7.00
Cc1nc(C23CCC(/C=C/c4c(-c5c(Cl)cncc5Cl)noc4C4CC4)(CC2)CC3)sc1C(=O)O [Example 509, (E)-2-(4-(2-(5-cyclopropyl-3-(3,5-dichloropyridin-4-yl)isoxazol-4-yl)vinyl)bicyclo[2.2.2]octan-1-yl)-4-methylthiazole-5-carboxylic acid] | 7.40
O=C(O)c1csc(C23CCC(/C=C/c4c(-c5c(Cl)cncc5Cl)noc4C4CC4)(CC2)CC3)n1 [Example 510, (E)-2-(4-(2-(5-cyclopropyl-3-(3,5-dichloropyridin-4-yl)isoxazol-4-yl)vinyl)bicyclo[2.2.2]octan-1-yl)thiazole-4-carboxylic acid] | 6.39
O=C(O)c1cccc(C23CCC(COCc4c(-c5c(Cl)cncc5Cl)noc4C4CC4)(CC2)CO3)c1 [Example 511, 3-(4-(((5-cyclopropyl-3-(3,5-dichloropyridin-4-yl)isoxazol-4-yl)methoxy)methyl)-2-oxabicyclo[2.2.2]octan-1-yl)benzoic acid] | 5.54
O=C(O)c1c(F)ccc2nc(C34CCC(OCc5c(-c6c(Cl)cncc6Cl)noc5C5CC5)(CC3)CC4)sc12 [Example 512, 2-(4-((5-cyclopropyl-3-(3,5-dichloropyridin-4-yl)isoxazol-4-yl)methoxy)bicyclo[2.2.2]octan-1-yl)-6-fluorobenzo[d]thiazole-7-carboxylic acid] | 7.37
O=C(O)c1cccc(-c2noc(C34C5C6C3C3C4C5C63COCc3c(-c4c(Cl)cccc4Cl)noc3C3CC3)n2)c1 (centres unmarked) [Example 513, 3-(5-(4-(((5-cyclopropyl-3-(2,6-dichlorophenyl)isoxazol-4-yl)methoxy)methyl)cuban-1-yl)-1,2,4-oxadiazol-3-yl)benzoic acid] | 6.02
O=C(O)c1cccc(-c2noc(C34CC(COCc5c(-c6c(Cl)cccc6Cl)noc5C5CC5)(C3)C4)n2)c1 [Example 514, 3-(5-(3-(((5-cyclopropyl-3-(2,6-dichlorophenyl)isoxazol-4-yl)methoxy)methyl)bicyclo[1.1.1]pentan-1-yl)-1,2,4-oxadiazol-3-yl)benzoic acid] | 5.77
O=C(O)c1ccc2cc(CCC34CCC(OCc5c(-c6c(Cl)cncc6Cl)noc5C5CC5)(CC3)CC4)ccc2n1 [Example 515, 6-(2-(4-((5-cyclopropyl-3-(3,5-dichloropyridin-4-yl)isoxazol-4-yl)methoxy)bicyclo[2.2.2]octan-1-yl)ethyl)quinoline-2-carboxylicacid] | 7.06
O=C(O)Cc1ccc(/C=C/C23CCC(OCc4c(-c5c(Cl)cncc5Cl)noc4C4CC4)(CC2)CC3)cc1 [Example 516, (E)-2-(4-(2-(4-((5-cyclopropyl-3-(3,5-dichloropyridin-4-yl)isoxazol-4-yl)methoxy)bicyclo[2.2.2]octan-1-yl)vinyl)phenyl)acetic acid] | 6.76
COc1nc(C(=O)O)cc2ccc(/C=C/C34CCC(OCc5c(-c6c(Cl)cncc6Cl)noc5C5CC5)(CC3)CC4)cc12 [Example 517, (E)-7-(2-(4-((5-cyclopropyl-3-(3,5-dichloropyridin-4-yl)isoxazol-4-yl)methoxy)bicyclo[2.2.2]octan-1-yl)vinyl)-1-methoxyisoquinoline-3-carboxylic acid] | 7.38
CC(C)Oc1nc(C(=O)O)cc2ccc(/C=C/C34CCC(OCc5c(-c6c(Cl)cncc6Cl)noc5C5CC5)(CC3)CC4)cc12 [Example 518, (E)-7-(2-(4-((5-cyclopropyl-3-(3,5-dichloropyridin-4-yl)isoxazol-4-yl)methoxy)bicyclo[2.2.2]octan-1-yl)vinyl)-1-isopropoxyisoquinoline-3-carboxylic acid] | 7.21
O=C(O)c1cc(F)cn2c(C#CC34CCC(OCc5c(-c6c(Cl)cncc6Cl)noc5C5CC5)(CC3)CC4)cnc12 [Example 520, 3-((4-((5-cyclopropyl-3-(3,5-dichloropyridin-4-yl)isoxazol-4-yl)methoxy)bicyclo[2.2.2]octan-1-yl)ethynyl)-6-fluoroimidazo[1,2-a]pyridine-8-carboxylic acid] | 8.40
COc1nc(C(=O)O)cc2ccc(C#CC34CCC(OCc5c(-c6c(Cl)cncc6Cl)noc5C5CC5)(CC3)CC4)cc12 [Example 521, 7-((4-((5-cyclopropyl-3-(3,5-dichloropyridin-4-yl)isoxazol-4-yl)methoxy)bicyclo[2.2.2]octan-1-yl)ethynyl)-1-methoxyisoquinoline-3-carboxylic acid] | 7.40
COc1cc(C(=O)N(C)C)nc2ccc(C#CC34CCC(OCc5c(-c6c(Cl)cncc6Cl)noc5C5CC5)(CC3)CC4)cc12 [Example 522, 6-((4-((5-cyclopropyl-3-(3,5-dichloropyridin-4-yl)isoxazol-4-yl)methoxy)bicyclo[2.2.2]octan-1-yl)ethynyl)-4-methoxy-N,N-dimethylquinoline-2-carboxamide] | 7.28
O=C(O)c1cnc(N2CC(F)C2)c(C#CC23CCC(OCc4c(-c5c(Cl)cncc5Cl)noc4C4CC4)(CC2)CC3)c1 [Example 523, 5-((4-((5-cyclopropyl-3-(3,5-dichloropyridin-4-yl)isoxazol-4-yl)methoxy)bicyclo[2.2.2]octan-1-yl)ethynyl)-6-(3-fluoroazetidin-1-yl)nicotinic acid] | 7.62
N#CC12CCC(OCc3c(-c4c(Cl)cccc4Cl)noc3C3CC3)(CC1)CC2 [Intermediate 70A, 4-((5-Cyclopropyl-3-(2,6-dichlorophenyl)isoxazol-4-yl)methoxy)bicyclo[2.2.2]octane-1-carbonitrile] | 6.33
COC(=O)c1cccc(-c2noc(C34CCC(C=Cc5c(-c6c(Cl)cccc6Cl)noc5C5CC5)(CC3)CC4)n2)c1 [Intermediate 159F, methyl 3-(5-(4-(2-(5-cyclopropyl-3-(2,6-dichlorophenyl)isoxazol-4-yl)vinyl)bicyclo[2.2.2]octan-1-yl)-1,2,4-oxadiazol-3-yl)benzoate] | 5.34
NC(=O)C12CCC(COCc3c(-c4c(Cl)cccc4Cl)noc3C3CC3)(CC1)CC2 [Intermediate 162C, 4-(((5-cyclopropyl-3-(2,6-dichlorophenyl)isoxazol-4-yl)methoxy)methyl)bicyclo[2.2.2]octane-1-carboxamide] | 6.74
